The assay concerns the target T1, αvβ3 (vitronectin receptor) (Homo sapiens, UniProt P05106+P06756).
T1 construct: Human placenta or human platelet αvβ3 (0.1-0.3 mg/mL) in buffer T; from tissue; host or cells: human placenta or human platelets
Description: Solid-Phase [3H]-SK&F-107260 Binding to αvβ3. The note with it: read-out: concentration at which the compound inhibits vitronectin binding to SK&F 107260. The procedure:
Solid-Phase [^3H]-SK&F-107260 Binding to αvβ3: Human placenta or human platelet αvβ3 (0.1-0.3 mg/mL) in buffer T (containing 2 mM CaCl2 and 1% octylglucoside) was diluted with buffer T containing 1 mM CaCl2, 1 mM MnCl2, 1 mM MgCl2 (buffer A) and 0.05% NaN3, and then immediately added to 96-well ELISA plates (Corning, New York, N.Y.) at 0.1 mL per well. 0.1-0.2 μg of αvβ3 was added per well. The plates were incubated overnight at 4° C. At the time of the experiment, the wells were washed once with buffer A and were incubated with 0.1 mL of 3.5% bovine serum albumin in the same buffer for 1 hr at room temperature. Following incubation the wells were aspirated completely and washed twice with 0.2 mL buffer A. […]
The plates were incubated for 1 hr at room temperature. […] The receptors were solubilized with 0.1 mL of 1% SDS and the bound [^3H]-SK&F-107260 was determined by liquid scintillation counting with the addition of 3 mL Ready Safe in a Beckman LS Liquid Scintillation Counter, with 40% efficiency. Nonspecific binding of [^3H]-SK&F-107260 was determined in the presence of 2 μM SK&F-107260 and was consistently less than 1% of total radioligand input. […] The Ki (dissociation constant of the antagonist) was calculated according to the equation: Ki=IC50/(1+L/Kd), where L and Kd were the concentration and the dissociation constant of [^3H]-SK&F-107260, respectively.

T1 sequence (P06756 31-889 limits assumed): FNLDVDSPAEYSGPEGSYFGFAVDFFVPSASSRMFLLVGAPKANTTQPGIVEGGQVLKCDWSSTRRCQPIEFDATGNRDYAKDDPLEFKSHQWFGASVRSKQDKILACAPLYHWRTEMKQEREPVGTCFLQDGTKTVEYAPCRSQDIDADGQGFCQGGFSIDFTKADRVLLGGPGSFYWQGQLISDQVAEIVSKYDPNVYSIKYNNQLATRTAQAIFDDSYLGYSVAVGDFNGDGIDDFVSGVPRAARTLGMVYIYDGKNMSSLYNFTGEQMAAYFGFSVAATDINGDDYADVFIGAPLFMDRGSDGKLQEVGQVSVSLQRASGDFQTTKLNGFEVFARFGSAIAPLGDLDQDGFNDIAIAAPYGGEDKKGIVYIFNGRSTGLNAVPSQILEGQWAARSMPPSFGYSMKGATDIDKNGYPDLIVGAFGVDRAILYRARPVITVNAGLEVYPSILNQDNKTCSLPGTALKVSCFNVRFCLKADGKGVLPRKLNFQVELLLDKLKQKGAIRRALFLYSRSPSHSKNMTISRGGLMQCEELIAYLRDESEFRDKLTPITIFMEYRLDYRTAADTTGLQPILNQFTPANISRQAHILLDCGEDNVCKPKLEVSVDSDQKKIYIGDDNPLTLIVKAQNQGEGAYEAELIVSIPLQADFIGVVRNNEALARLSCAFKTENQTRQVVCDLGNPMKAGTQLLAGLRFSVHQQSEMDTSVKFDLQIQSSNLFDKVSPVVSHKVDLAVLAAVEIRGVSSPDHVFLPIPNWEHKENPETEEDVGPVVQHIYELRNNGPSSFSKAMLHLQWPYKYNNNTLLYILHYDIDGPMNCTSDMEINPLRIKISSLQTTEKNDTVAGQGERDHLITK
T1 sequence (P06756 891-1048 partner limits assumed): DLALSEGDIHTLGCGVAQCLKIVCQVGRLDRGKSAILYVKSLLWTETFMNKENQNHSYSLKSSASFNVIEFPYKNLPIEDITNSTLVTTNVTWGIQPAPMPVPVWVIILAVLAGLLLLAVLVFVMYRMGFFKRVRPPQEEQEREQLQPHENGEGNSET
T1 sequence (P05106 27-788): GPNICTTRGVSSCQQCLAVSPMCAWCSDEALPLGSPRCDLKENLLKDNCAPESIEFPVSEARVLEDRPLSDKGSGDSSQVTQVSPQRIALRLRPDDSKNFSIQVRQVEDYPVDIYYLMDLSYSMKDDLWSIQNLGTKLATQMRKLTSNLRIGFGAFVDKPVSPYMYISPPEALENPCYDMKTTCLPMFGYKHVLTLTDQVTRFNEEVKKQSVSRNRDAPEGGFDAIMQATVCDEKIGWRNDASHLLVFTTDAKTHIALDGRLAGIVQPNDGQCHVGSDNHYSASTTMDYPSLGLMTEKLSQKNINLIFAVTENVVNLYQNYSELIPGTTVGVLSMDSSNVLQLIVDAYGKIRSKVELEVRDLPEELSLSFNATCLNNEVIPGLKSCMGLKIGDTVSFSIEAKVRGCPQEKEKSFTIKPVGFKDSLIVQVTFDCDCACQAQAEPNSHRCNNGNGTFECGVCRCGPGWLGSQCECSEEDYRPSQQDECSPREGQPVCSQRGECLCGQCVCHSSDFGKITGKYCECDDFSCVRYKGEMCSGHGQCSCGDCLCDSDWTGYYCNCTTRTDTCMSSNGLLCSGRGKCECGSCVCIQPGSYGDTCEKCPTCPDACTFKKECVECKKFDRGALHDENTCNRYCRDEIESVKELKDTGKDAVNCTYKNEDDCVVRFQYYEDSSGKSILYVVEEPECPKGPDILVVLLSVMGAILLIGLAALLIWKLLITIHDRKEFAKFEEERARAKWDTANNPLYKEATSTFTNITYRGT

As to `O=C(O)C[C@@H]1Cc2ccc(OCCCNc3ccccn3)cc2CN(Cc2ccc(F)c(F)c2F)C1=O` [Example 1, (S)-3-oxo-8-[3-(pyridin-2-ylamino)-1-propyloxy]-2-(2,3,4-trifluorobenzyl)-2,3,4,5-tetrahydro-1H-2-benzazepine-4-acetic acid], the IC50 is about 3 nM.
